US6673801B1, “Dihydroxyhexanoic acid derivatives” (Pfizer Inc., priority 1998, dated 2004)

Assays:
[1] = Kinetic solubility assay (turbidometric, phosphate buffer); conditions: pH 7, aqueous buffer, kinetic from dmso stock
Procedure: (§1) Solubility of the compounds is determined at four fixed concentrations and is expressed as μg/mL. Solubility or insolubility is measured in phosphate buffer using a turbidometric plate reader by automated micro addition of a compound predissolved in DMSO. Solubilities at 50, 100, 200 and 250 or 100, 200, 400 and 500 micrograms/mL can be determined by predissolving 1 mg of compound in sufficient DMSO to reach an initial concentration of 20 or 40 μg/uL.
(§2) A spectramax 250 UV transparent 96 well microplate is filled with 200 uL of Stock pH 7 phosphate buffer solution. A series of 25 absorption readings in a 5 by 5 matrix at a wavelength of 492 nm are taken for each well in the microplate containing pH buffer alone. This scan is to be used as a “blank”, and the raw optical dispersion (OD) values are used as a baseline.
(§3) Compounds in DMSO solution are then added (column wise) down the microplate. Up to twenty four samples are assayed with each compound being placed in four contiguous wells column wise. Each column of the microplate contains four concentrations of compound in ascending concentration and ascending row order (A-D), or row (E-H). […] The plate is then shaken for 20 minutes to allow for mixing.
(§4) After compound addition, a second scan consisting of a series of 25 absorption readings in a 5 by 5 matrix are taken for each well in the microplate at the same wavelength as the first blank scan. The raw compound OD values for each reading in the 5 by 5 matrix are subtracted from the corresponding “blank” values in the 5 by 5 matrix to provide the raw solubility OD data.
(§5) Data obtained from the Tecan SLT Spectra Image Reader is then analyzed using a Visual Basic computer program (or can be calculated manually according to methods well known to those of ordinary skill in the art), so as to provide solubility data for each compound.

[2] = pH 7
Procedure: as §1, §2, §3, §4, §5

| solubility at 20 min [1] [mg/mL] | melting point [°C] | Solubility [2] | SMILES |
| --- | --- | --- | --- |
| > 0.25 |  |  | CC(C)(O)CC[C@H](C[C@H](O)[C@H](Cc1cccs1)NC(=O)c1cnc2ccccc2n1)C(N)=O [Example 1, QUINOXALINE-2-CARBOXYLIC ACID (4(R)-CARBAMOYL-2(S),7-DIHYDROXY-7-METHYL-1(S)-THIOPHEN-2-YLMETHYL-OCTYL)-AMIDE] |
| > 0.25 |  |  | CC(C)(O)CC[C@H](C[C@H](O)[C@H](Cc1ccccc1Cl)NC(=O)c1cnc2ccccc2n1)C(N)=O [Example 7, Quinoxaline-2-carboxylic acid [4(R)-carbamoyl-1(S)-(2-chloro-benzyl)-2(S),7-dihydroxy-7-methyl-octyl]-amide] |
| > 0.25 | 130 to 131 |  | CC(C)(O)CC[C@H](C[C@H](O)[C@H](Cc1ccccc1F)NC(=O)c1cnc2ccccc2n1)C(=O)NO [Example 8, Quinoxaline-2-carboxylic acid [1(S)-(2-fluoro-benzyl)-2(S),7-dihydroxy-4(R)-hydroxycarbamoyl-7-methyl-octyl]-amide] |
| > 0.25 | 147 to 148 |  | CC(C)(O)CC[C@H](C[C@H](O)[C@H](Cc1ccccc1F)NC(=O)c1cnc2ccccc2n1)C(N)=O [Example 9, Quinoxaline-2-carboxylic acid [4(R)-carbamoyl-1(S)-(2-fluoro-benzyl)-2(S),7-dihydroxy-7-methyl-octyl]-amide] |
| > 0.2 | 150 to 153 |  | CC(C)(O)CC[C@H](C[C@H](O)[C@H](Cc1ccc(F)c(F)c1)NC(=O)c1cnc2ccccc2n1)C(=O)NO [Example 10, Quinoxaline-2-carboxylic acid [1(S)-(3,4-difluoro-benzyl)-2(S),7-dihydroxy-4(R)-hydroxycarbamoyl-7-methyloctyl]-amide] |
| > 0.25 | 110 to 120 |  | CC(C)(O)CC[C@H](C[C@H](O)[C@H](Cc1ccc(F)c(F)c1)NC(=O)c1cnc2ccccc2n1)C(N)=O [Example 11, Quinoxaline-2-carboxylic acid [4(R)-carbamoyl-1(S)-(3,4-difluoro-benzyl)-2(S),7-dihydroxy-7-methyl-octyl]-amide] |
| > 0.25 | 155 to 158 |  | CC(C)(O)CC[C@H](C[C@H](O)[C@H](Cc1cccc2ccccc12)NC(=O)c1cnc2ccccc2n1)C(N)=O [Example 12, Quinoxaline-2-carboxylic acid (4(R)-carbamoyl-2(S),7-dihydroxy-7-methyl-1(S)-naphthalen-1-ylmethyl-octyl)-amide] |
| < 0.005 |  |  | CNC(=O)[C@H](CC(C)C)C[C@H](O)[C@H](Cc1ccc2ccccc2c1)NC(=O)c1cnc2ccccc2n1 [Example 127, quinoxaline-2-carboxylic acid (2(S)-hydroxy-6-methyl-4(R)-methylcarbamoyl-1(S)-naphthalen-2-ylmethyl-heptyl)-amide, reference compound] |
|  |  | less than 5 μg/mL | CC(C)(F)CC[C@H](C[C@H](O)[C@H](Cc1ccccc1)NC(=O)c1cnc(Cl)c(Cl)c1)C(N)=O [Example 247] |

| SMILES | solubility at 20 min [1] [mg/mL] | melting point [°C] | Solubility [2] |
| --- | --- | --- | --- |
| CC(C)(O)CC[C@H](C[C@H](O)[C@H](Cc1ccccc1)NC(=O)c1cnc2c(F)c(F)c(F)cc2c1)C(N)=O [Example 5, 6,7,8-Trifluoro-quinoline-3-carboxylic acid (1(S)-benzyl-4(R)-carbamoyl 2(S),7-dihydroxy-7-methyl-octyl)-amide] | > 0.25 | 185 to 188 |  |
| CC(C)(O)CC[C@H](C[C@H](O)[C@H](Cc1ccccc1)NC(=O)c1cnc2ccccc2n1)C(=O)NO [Example 6, Quinoxaline-2-carboxylic acid (1(S)-benzyl-2(S),7-dihydroxy-4(R)-hydroxycarbamoyl-7-methyl-octyl)-amide] | > 0.25 | 108 to 110 |  |
